“And” between values parts separate entries of the source, which are not always exact repeats. Identical values can stand only once.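 Results reflect a 48-hour exposure of cells in 96-well plates to compound at five concentrations. GI50 marks 50% less growth. The concentration for full growth arrest is given as TGI.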 *1 amine or outer side, *2 acyl side, *3 side chain or, on linkers, in order; H or OH if unused. Where a SMILES comes first, the peptide text is derived from it. Bridges are numbered along the chain shown (N, C = ends). [ ]: non-standard residue; d: D form. ξ: configuration not given here. X4 = CCC(C)C(N[*:1])C(O)CC(=O)O[C@H](C(=O)C(C)C(=O)[*:2])C(C)C; NMeY = CN[C@@H](Cc1ccc(O)cc1)C(=O)O; X9 = O=C([C@@H]1CC(O)CN1[*:1])[*:2]; ξNMeL = CNC(CC(C)C)C(=O)O; ξT = CC(O)C(N)C(=O)O
Key:
Experiment in all cases: NCI tumour cell line growth inhibition, 48 h
[1] = system: HOP-62 NSCLC
[2] = system: IGROV1 ovarian
[3] = system: MDA-MB-435
[4] = system: SK-MEL-2 melanoma
[5] = system: SK-MEL-28 melanoma
[6] = system: SK-MEL-5 melanoma
[7] = system: SR leukemia
[8] = system: SW-620 colon
[9] = system: UACC-257 melanoma
[10] = system: UACC-62 melanoma

SMILES	GI50 [1] [µM]	TGI [1] [µM]	GI50 [2] [µM]	TGI [2]	GI50 [3] [µM]	TGI [3]	GI50 [4] [µM]	TGI [4]	GI50 [5] [µM]	TGI [5]	GI50 [6] [µM]	TGI [6]	GI50 [7] [µM]	TGI [7] [µM]	GI50 [8] [µM]	TGI [8]	GI50 [9] [µM]	TGI [9]	GI50 [10] [µM]	TGI [10]
CC(C)(C)Cn1c(N)nc2ccc(-c3[nH]c(C(C)(C)C)nc3-c3ccc(F)cc3)nc21	14.2	29	2.66	16.4 µM	11.2	24.1 µM	13.1	27.1 µM	11.6	23.8 µM	11	23 µM	10.5	47.9	13.6	30.1 µM	11.2	23.9 µM	10.1	23.2 µM
FC(F)(F)c1ccc2c(c1)N(CCCN1CCN(C3CC3)CC1)c1ccccc1S2	14.4	27.8	11.6	28.3 µM	12.2	27.6 µM	18.9	34.9 µM	15.2	29.1 µM	4.08	14.4 µM	3.79	15.6	4.42	18.1 µM	5.57	19 µM	14.1	30.1 µM
COc1ccc(C2=NNC(c3ccc(-c4ccc(OC)cc4[N+](=O)[O-])o3)C2)cc1 (stereo unspecified)	30.6	> 100	59.9	> 100 µM	25.3	91.3 µM	> 100	> 100 µM	> 100	> 100 µM	72.7	> 100 µM	20.2	> 100	78.2	> 100 µM	38.4	> 100 µM	0.691	19.4 µM
CCC(C)C1NC(=O)C(NC(=O)C(CC(C)C)N(C)C(=O)[C@@H]2CC(O)CN2)C(C)OC(=O)[C@H](Cc2ccc(OC)cc2)N(C)C(=O)[C@@H]2CCCN2C(=O)[C@H](CC(C)C)NC(=O)C(C)C(=O)[C@H](C(C)C)OC(=O)CC1O (stereo partly specified) (H-[X9][ξNMeL][ξT][X4]LP[NMeY](Me); ester 3-C)		0.154		0.107 µM and 0.141 µM		0.0555 µM and 0.131 µM		0.0496 µM and 0.0758 µM		0.0194 µM and 0.106 µM		0.101 µM and 0.0147 µM		> 100		0.287 µM and 0.294 µM		0.185 µM and 0.608 µM		0.0231 µM and 0.0117 µM
COc1cc2c(cc1OCCCCCOc1cc(-c3ccc(F)cc3)nc(C)n1)N=C[C@@H]1CCCN1C2=O	> 50.2	> 79.4	> 27.8	> 49.6 µM	> 45.3	> 67.5 µM	> 48.3	> 68.7 µM	> 46.2	> 79.8 µM		> 26.2 µM		> 57.9	> 32.1	> 87.1 µM	> 100	> 100 µM	> 38.1	> 56.2 µM
CCOC(=O)C1CCC/C1=N\N=C(N)N (stereo unspecified) (tested in a mixture with another compound)		> 100		> 100 µM		> 100 µM		> 100 µM		> 100 µM		> 100 µM		> 100		> 100 µM		> 100 µM		> 100 µM
COC(=O)c1c2c(c(C)[n+]([O-])c1C)C(=O)C=C(NCc1ccc(Cl)cc1)C2=O	1.15	3.46	0.346	1.82 µM	0.0895	0.229 µM	1.05	2.73 µM	0.733	2.59 µM	0.176	0.337 µM	0.733	7.91	0.143	1.37 µM	0.234	0.868 µM	0.046	1.02 µM
COC(=O)C1=CN(CC2=CC(=O)C(C)=CC2=O)C=C(C(=O)OC)C1c1cccc(OC)c1OC	15.8	> 48.1	17.4	47.3 µM	15.8	39.3 µM	19.8	52.1 µM	31	> 57.9 µM	15.2	32.6 µM	1.08	13.8	19.4	> 70.6 µM	18.5	43.5 µM	13	30.4 µM
N#C/C(=C\c1cn(-c2ccccc2)c2ccccc12)C(=O)O	39.2	> 100	49.3	> 100 µM	39.4	> 100 µM	28	> 100 µM	33.9	> 100 µM	38.4	> 100 µM	68.8	> 100	48.3	> 100 µM	> 100	> 100 µM	23.8	85.6 µM
Cc1ccc(NC(=O)c2ccnc(C(F)(F)F)c2)cc1-c1cc(OCCO)nc(N2CCOCC2)c1	1.28	34.5	1.61	40 µM	0.391	1.81 µM	0.192	3.44 µM	0.377	11.3 µM	1.5	4.71 µM	0.613	> 100	1.55	63.8 µM	0.6	12.4 µM	0.315	4.54 µM
COc1ccc(C2CC(=O)Nc3c2c(C)nn3-c2nc3ccccc3[nH]2)cc1 (stereo unspecified)	2.56	6.55	2.38	5.26 µM	2.55	6.84 µM	3.45	9.43 µM	3.92	> 55.9 µM	1.82	3.71 µM	2.96	> 25.1	3.33	20.6 µM	2.65	8.21 µM	1.94	4.16 µM
C=C1C(=O)O[C@H]2[C@H]1CC/C(COC(=O)NCCc1ccc(OC)cc1)=C\CC[C@@]1(C)O[C@@H]21	12.2	27.1	2.61	7.32 µM	3.53	11.8 µM	8.97	21.9 µM	1.99	4.39 µM	6.23	19.1 µM	2.07	7.87	2.51	6.97 µM	2.49	6.85 µM	1.25	3.05 µM
CCN(CC)c1ccc(/C=N/NC(=O)c2ccc(Nc3ccnc(C(F)(F)F)c3)cc2)c(O)c1	0.187	1.07	0.158		0.454	7.79 µM	0.718		0.32	> 27.3 µM	0.412	1.71 µM	0.0862	0.672	0.404	> 64.7 µM	0.412	> 31 µM	0.229	0.898 µM
Cc1c(C(=O)/C=C/c2ccc(O)cc2)nnn1-c1ccnc2c(C(F)(F)F)cccc12	67.7	> 100	21.9	> 100 µM	10.8	> 100 µM	> 100	> 100 µM	51.8	> 100 µM	4.81	24.8 µM	2.29	9.86	27.1	> 100 µM	4.4	22.9 µM	18.7	> 100 µM
[N-]=[N+]=Nc1ncc(-c2ccc(C(F)(F)F)cc2)c(NC2CCCCCC2)n1	> 10	> 10	> 10	> 10 µM	> 10	> 10 µM	> 10	> 10 µM	> 10	> 10 µM	> 10	> 10 µM	> 10	> 10	> 10	> 10 µM	> 10	> 10 µM	> 10	> 10 µM
Nc1nc(-n2cccn2)nc(-n2cccn2)c1Br	> 100	> 100	> 100	> 100 µM	> 100	> 100 µM	> 100	> 100 µM	> 100	> 100 µM	> 100	> 100 µM	> 100	> 100	> 100	> 100 µM	> 100	> 100 µM	> 100	> 100 µM
O=C(O)CC(Cc1ccc2c(c1)OCO2)C(=O)O (stereo unspecified)		> 100		> 100 µM		> 100 µM		> 100 µM		> 100 µM		> 100 µM		> 100		> 100 µM		> 100 µM		> 100 µM
CCN(CC)CCC(=O)Nc1cccc2c1C(=O)c1c(c(O)c3ccccc3c1O)C2=O	10.4	39.1	18.9	96.8 µM	31	> 100 µM	> 100	> 100 µM	3.65	14.4 µM	49.7	> 100 µM	0.878	52.4	6.93	23 µM	41.6	> 100 µM	> 100	> 100 µM
CC(=O)OCC(=O)[C@@]1(O)[C@H](C)C[C@H]2[C@@H]3C=C(C)C4=Cc5c(cnn5-c5ccc(F)cc5)C[C@]4(C)[C@H]3[C@@H](O)C[C@@]21C	1.28	3.07	2.85	12.8 µM	2.35	7.02 µM	2.14	6.36 µM	1.33	2.81 µM	1.26	2.53 µM	2.35	7.93	1.8	3.41 µM	2.76	8.54 µM	1.73	3.78 µM
O=[N+]([O-])c1cccc(-c2nc3sccn3c2-c2ccnc(NCCCNS(=O)(=O)c3ccc(F)cc3)n2)c1	3.16	9.61	2.9	26.8 µM	2.55	7.93 µM	2.06	5.43 µM	2.75	7.92 µM	1.06	2.45 µM	2.53	> 100	3.95	> 100 µM	2.54	7.96 µM	1.2	4.21 µM
